According to ChEMBL document CHEMBL1201862, “PubChem BioAssay data set” (2004):
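These data come from cells grown in 96-well plates and exposed to compound for 48 hours at five concentrations. GI50 = concentration required for 50% inhibition of growth.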 Activity calls are given as the source filed them. No stated cut-off is given here; in the data, active = GI50 up to about 1.1 µM and inactive = higher.

What was measured:
Assay in all cases: growth of human tumour cells (NCI), 48 h
[1] = test system: SF-295
[2] = test system: CAKI-1
[3] = test system: HOP-62
[4] = test system: HT-29
[5] = test system: SNB-75
[6] = test system: SN12C
[7] = test system: NCI-H460
[8] = test system: SK-MEL-28
[9] = test system: CCRF-CEM
[10] = test system: OVCAR-3
[11] = test system: UACC-62
[12] = test system: HCT-116
[13] = test system: SK-OV-3
[14] = test system: Malme-3M
[15] = test system: K562
[16] = test system: SW-620
[17] = test system: SK-MEL-2
[18] = test system: NCI-H522
[19] = test system: U-251

Measured: GI50

COC(=O)C(C(=O)C(=O)Nc1ccc(N)cc1[N+](=O)[O-])c1nc2ccc(Cl)cc2nc1O (stereo unspecified)
inactive: [1] > 100 µM | [2] > 100 µM | [3] > 100 µM | [4] > 100 µM | [5] 32.4 µM | [6] > 100 µM | [7] > 100 µM | [8] > 100 µM | [9] 92.5 µM | [10] 74.8 µM | [11] > 100 µM | [12] > 100 µM | [13] > 100 µM | [14] > 100 µM | [15] > 100 µM | [16] > 100 µM | [17] > 100 µM

Cc1cc(=O)n2nc(CSc3nnc(N)s3)sc2n1
inactive: [1] > 100 µM | [18] > 100 µM | [2] > 100 µM | [3] > 100 µM | [4] > 100 µM | [5] > 100 µM | [6] > 100 µM | [7] > 100 µM | [8] > 100 µM | [9] > 100 µM | [10] > 100 µM | [11] > 100 µM | [12] > 100 µM | [13] > 100 µM | [14] > 100 µM | [15] > 100 µM | [16] > 100 µM | [19] > 100 µM | [17] > 100 µM

O[C@@H]1[C@H](OC2c3ccccc3-c3ccccc32)[C@H](OCc2ccccc2)[C@@H]2OC[C@H]1O2
inactive: [1] > 100 µM | [18] > 100 µM | [2] > 100 µM | [3] 25.8 µM | [4] > 100 µM | [6] > 100 µM | [8] > 100 µM | [9] 42.4 µM | [10] > 100 µM | [11] > 100 µM | [12] 41.5 µM | [14] > 100 µM | [15] > 100 µM | [16] > 100 µM | [19] 43.3 µM | [17] > 100 µM

COc1cc(/C=C2/SC(c3ccccc3)N(c3cccc([N+](=O)[O-])c3)C2=O)cc(OC)c1OC (stereo unspecified)
inactive: [1] > 100 µM | [18] 60.5 µM | [2] > 100 µM | [3] > 100 µM | [6] > 100 µM | [7] > 100 µM | [8] 55.5 µM | [9] 22.2 µM | [10] > 100 µM | [11] 95.3 µM | [12] 61.4 µM | [13] > 100 µM | [14] 82.8 µM | [15] > 100 µM | [16] 74.5 µM | [19] > 100 µM | [17] > 100 µM

CC[C@@]1(CCC(=O)NCCc2c[nH]c3ccccc23)CCC(=O)N2CCc3c([nH]c4ccccc34)[C@H]21
inactive: [1] 5.13 µM | [18] 3.9 µM | [2] > 100 µM | [3] 37 µM | [6] 39.5 µM | [7] 6.89 µM | [8] 39.4 µM | [9] 7.33 µM | [10] 24.5 µM | [11] 17.1 µM | [12] 11.8 µM | [13] 36.2 µM | [14] 5.35 µM | [15] 7.45 µM | [16] 25.8 µM | [19] 29.8 µM | [17] 17.1 µM

O=C(/C=C/c1ccc(O)c(O)c1)OCCc1ccc2ccccc2c1
inactive: [1] 10.9 µM | [18] 2.38 µM | [3] 13.2 µM | [4] 12.9 µM | [5] 1.87 µM | [6] 5.26 µM | [7] 7.05 µM | [8] 9.14 µM | [9] 4.63 µM | [10] 3.26 µM | [11] 3.69 µM | [12] 5.24 µM | [13] 13.5 µM | [14] 10.9 µM | [15] 2.99 µM | [16] 6.93 µM | [19] 10.8 µM | [17] 1.29 µM

CCc1cc2c(c3c1CCC3=O)CC1(Cc3ccc(C)cc3C1)C2 (stereo unspecified)
inactive: [1] 80.2 µM | [18] 23.8 µM | [3] > 100 µM | [4] 18.1 µM | [6] 43.4 µM | [9] 13.6 µM | [10] 37.3 µM | [11] 22.2 µM | [12] 17.6 µM | [13] 71.3 µM | [14] 32.1 µM | [15] 30.5 µM | [19] 30.5 µM | [17] 31.5 µM

CCCCCCCCCCCCCCCC(=O)NCC(OCC)OCC
inactive: [1] > 100 µM | [18] > 100 µM | [3] > 100 µM | [4] > 100 µM | [5] > 100 µM | [6] > 100 µM | [7] > 100 µM | [8] > 100 µM | [9] > 100 µM | [10] > 100 µM | [11] > 100 µM | [12] > 100 µM | [13] > 100 µM | [14] > 100 µM | [16] > 100 µM | [19] > 100 µM | [17] > 100 µM

O=C(NC(=O)c1cc2cc(Br)cc(Br)c2oc1=O)Oc1ccccc1
inactive: [1] 49.9 µM | [2] 43 µM | [3] 43.7 µM | [4] > 100 µM | [5] 13.7 µM | [6] 61.2 µM | [7] > 100 µM | [8] > 100 µM | [9] > 100 µM | [10] > 100 µM | [11] 50.7 µM | [12] > 100 µM | [13] 37 µM | [14] > 100 µM | [15] > 100 µM | [16] > 100 µM | [19] 28.2 µM

O=C(c1cccc(C(=O)c2ccc3c4c(cccc24)C(=O)N(c2ccccc2)C3=O)c1)c1ccc2c3c(cccc13)C(=O)N(c1ccccc1)C2=O
inactive: [1] 71.9 µM | [18] > 100 µM | [2] > 100 µM | [3] 88.7 µM | [4] > 100 µM | [5] > 100 µM | [6] > 100 µM | [7] > 100 µM | [8] > 100 µM | [10] > 100 µM | [11] 40 µM | [12] > 100 µM | [13] > 100 µM | [14] > 100 µM | [15] > 100 µM | [16] > 100 µM | [19] > 100 µM

Cc1c(C(=O)CC(=O)C(=O)Nc2ccc(Cl)cc2)[n+]([O-])c2ccccc2[n+]1[O-]
inactive: [1] > 100 µM | [18] > 100 µM | [2] > 100 µM | [5] 18.7 µM | [6] > 100 µM | [7] > 100 µM | [8] > 100 µM | [9] > 100 µM | [10] > 100 µM | [11] > 100 µM | [12] > 100 µM | [13] > 100 µM | [14] > 100 µM | [15] > 100 µM | [16] > 100 µM | [19] > 100 µM | [17] > 100 µM
